The solubility (thermodynamic) is solubility found after equilibrating the solid with the medium. In general, IC50 refers to the concentration at which inhibition is half-maximal. By CC50 is commonly meant the concentration giving 50% cytotoxicity. Read a high CC50 as better tolerance by the cells.

In brackets after ≈: the same amount, converted by molar mass.

From patent publication US20210317141A1, “OXOPYRIDO[1,2-A]PYRIMIDINE COMPOUNDS FOR THE TREATMENT AND PROPHYLAXIS OF BACTERIAL INFECTION” (Hoffmann-La Roche Inc., priority 2018, published 2021) come the findings set out here.

Data set [1] is described as follows: Lyophilisation solubility assay (LYSA). In kind it is physicochemical. The settings on record: aqueous buffer, thermodynamic from solid; 0.05 M phosphate buffer, pH 6.5; * = detection limit. As to the method:
The solubility of compounds of present invention was assessed by LYSA assay. Samples were prepared in duplicate from 10 mM DMSO stock solutions (20 μL) diluted in 30 μL pure DMSO. After evaporation of DMSO with a centrifugal vacuum evaporator, the residue was dissolved in 0.05 M phosphate buffer (150 μL, pH 6.5), stirred for one hour and shook for two hours. After one night, the solution was filtered using a microtiter filter plate. Then the filtrate and its 1/10 dilution were analyzed by HPLC-UV. In addition, a four-point calibration curve was prepared from the 10 mM stock solutions and used for the solubility determination of the compounds.

The test system of the next data set is E. coli (BW25113). Briefly: 50% growth inhibitory concentration (IC50) determination assay, E. coli. Type of data set: cell-based. To be noted: Escherichia coli, growth inhibition, Iso-Sensitest broth, OD 600 nm over 16 h, 35±2° C., read-out: IC50 (μM) E. coli K12 BW25113. Here is the method:
(§1) The in vitro antimicrobial activity of the compounds against E. coli (BW25113, obtained from Coli Genetic Stock Center, #7636) and K. pneumoniae (ATCC10031) was determined according to the following procedure:
(§2) The assay used a 10-points Iso-Sensitest broth medium to measure quantitatively the in vitro activity of the compounds against E. coli BW25113 and K. pneumoniae ATCC 10031.
(§3) Stock compounds in DMSO were serially two-fold diluted (range from 50 to 0.097 μM final concentration) in 384 wells microtiter plates and inoculated with 49 μL the bacterial suspension in Iso-Sensitest broth medium to have a final cell concentration of ˜5×10^5 CFU/mL in a final volume/well of 50 μL/well. Microtiter plates were incubated at 35±2° C.
(§4) Bacterial cell growth was determined with the measurement of optical density at k=600 nm each 20 minutes over a time course of 16 h.
(§5) Growth inhibition was calculated during the logarithmic growth of the bacterial cells with determination of the concentration inhibiting 50% (IC50) of the growth.

For data set [2], the system named is K. pneumoniae (ATCC10031). Put plainly: 50% growth inhibitory concentration (IC50) determination assay, K. pneumoniae. To be noted: Klebsiella pneumoniae, growth inhibition, Iso-Sensitest broth, OD 600 nm over 16 h, * = detection limit. In kind it is cell-based. Here is the method: as §1, §2, §3, §4, §5
A further data set relates to E. coli (ATCC 25922). Put plainly: Minimal Inhibitory Concentration (MIC) assay. To be noted: Escherichia coli, ATCC25922; CAMHB, 20 hours at 35° C.; read-out: MIC (μg/mL) E. coli ATCC 25922. In kind it is cell-based. As to the method: The in vitro potency of compounds to inhibit E. coli (ATCC 25922) growth was assessed by MIC (Minimal Inhibitory Concentration) assay. Samples were prepared from 10 mM DMSO stock solutions. After serial 2-fold dilution in DMSO in a master plate (Greiner, Cat No: 651201), 180 μL sterile distilled water was added to 20 μL each aliquot of the samples. Then […], diluted compounds were transferred into a new assay plate (Costar, 3599).
The growth medium […] Mueller Hinton Broth (CAMHB) was prepared by adding the 20 mg per liter CaCl2) and 20 mg per liter MgCl2 into the MHB medium (Jianglai Company, sterilized).
Vials of each of the test microorganisms were maintained frozen in the vapor phase of a liquid nitrogen freezer. Took out the bacteria E. coli ATCC 25922 (KWIKSTIK, 0335K) from liquid nitrogen freezer, thawed it in room temperature, and diluted the bacterial in the CAMHB medium to achieve a final inoculum of 5×10^5 CFU/mL. 90 μL CAMHB with bacteria was dispensed to the assay plate and pipetted 5 times.
Then the assay plates were incubated for 20 hours at 35° C. in ambient air. Following incubation, the MIC (μg/mL), the lowest concentration of drug that inhibits visible growth of the microorganism was read and recorded throw the microscope.

A short description of data set [3]: Cytotoxicity assay (HepG2, CellTiter-Blue). Type of data set: cell-based. To be noted: human, HepG2 cells, 3 days treatment. Here is the method: The cytotoxicity of compounds of present invention was assessed by HepG2 assay. HepG2 cells (ATCC HB-8065™) were seeded into 96-well plates (1.2×10^4 cells per well) and treated with compounds for 3 days, cell viability was measured at day 3 post compound treatment using the CellTiter-Blue® Cell Viability Assay (Promega, Cat. No. G8082). 20 μL of Cell titer blue buffer were added to each well of the cells, incubated for 3 hours at 37° C., and the fluorescence value was measured by a plate reader (Molecular Device SpectraMax M2). The CC50 value of each compound is plotted with GraphPad Prism using four parameter logistic equation.
A general note: Resazurin is reduced to fluorescent resorufin, in cell work by metabolically active cells.

`CNc1cc(F)c(F)c2c1[nH]c1ncc(-c3cc(OC)c4ncc(C(=O)O)c(=O)n4c3)c(N(C)C)c12` [Example 1.03, 7-[4-(Dimethylamino)-5,6-difluoro-8-(methylamino)-9H-pyrido[2,3-b]indol-3-yl]-9-methoxy-4-oxo-pyrido[1,2-a]pyrimidine-3-carboxylic acid]: the solubility (thermodynamic) in data set [1] was determined as 54 µg/mL (≈ 109 µM). For the same compound, the IC50 was determined as 2.71 µM in the data set with E. coli (BW25113) and 0.114 µM in data set [2]. Besides, in the data set on E. coli (ATCC 25922), the MIC is 0.682 µg/mL (≈ 1.38 µM). In data set [3], this compound displayed a CC50 at 3 days above 100 µM.

As for `CNc1cc(F)c(F)c2c1[nH]c1ncc(-c3ccc4ncc(C(=O)O)c(=O)n4c3)c(N3CCOCC3)c12` [Example 1.10, 7-(5,6-Difluoro-8-(methylamino)-4-morpholino-9H-pyrido[2,3-b]indol-3-yl)-4-oxo-4H-pyrido[1,2-a]pyrimidine-3-carboxylic acid], the solubility (thermodynamic) in data set [1] was 63 µg/mL (≈ 124 µM). The values for the IC50 (in the data set with E. coli (BW25113); in data set [2]) were 3.58 µM and at most 0.098 µM, respectively. The MIC in the data set with E. coli (ATCC 25922) turned out to be 0.017 µg/mL (≈ 0.0336 µM). This compound returned a cytotoxic concentration (CC50) at 3 days in data set [3] above 100 µM.

Take `CNc1c(F)c(F)cc2c1[nH]c1ncc(-c3ccc4ncc(C(=O)O)c(=O)n4c3)c(N3CCOCC3)c12` [Example 1.13, 7-(6,7-Difluoro-8-(methylamino)-4-morpholino-9H-pyrido[2,3-b]indol-3-yl)-4-oxo-4H-pyrido[1,2-a]pyrimidine-3-carboxylic acid]: the thermodynamic solubility in data set [1] is 162 µg/mL (≈ 320 µM). The IC50 in the data set on E. coli (BW25113) is 2.86 µM; in data set [2], at most 0.098 µM. Besides, the MIC with E. coli (ATCC 25922) turned out to be 0.0909 µg/mL (≈ 0.179 µM). This compound came in with a CC50 at 3 days in data set [3] of 80.1 µM.

On to `CNc1cc(F)c(F)c2c1[nH]c1ncc(-c3cc(CN(C)C)c4ncc(C(=O)O)c(=O)n4c3)c(N3CCOCC3)c12` [Example 1.14, 7-(5,6-Difluoro-8-(methylamino)-4-morpholino-9H-pyrido[2,3-b]indol-3-yl)-9-((dimethylamino)methyl)-4-oxo-4H-pyrido[1,2-a]pyrimidine-3-carboxylic acid], for which, in data set [1], the solubility (thermodynamic) came to 315 µg/mL (≈ 559 µM). In addition, the IC50 in the data set on E. coli (BW25113) was 8.58 µM; in data set [2] it was 0.197 µM. Further, in data set [3], the CC50 at 3 days was above 100 µM.

Take `CNc1cc(F)c(F)c2c1[nH]c1ncc(-c3ccc4ncc(C(=O)O)c(=O)n4c3)c(N(C)CCOC)c12` [Example 1.24, 7-(5,6-Difluoro-4-((2-methoxyethyl)(methyl)amino)-8-(methylamino)-9H-pyrido[2,3-b]indol-3-yl)-4-oxo-4H-pyrido[1,2-a]pyrimidine-3-carboxylic acid]: in data set [1], the solubility (thermodynamic) is 22 µg/mL (≈ 43.3 µM). Also, the IC50 in the data set on E. coli (BW25113) stood at 2.23 µM; in data set [2], 0.105 µM. This compound displayed a CC50 at 3 days in data set [3] of 71 µM.

In data set [1], `CNc1cc(F)cc2c1[nH]c1nc(Oc3cnc(C)nc3)nc(N3C[C@H]4C[C@@H]3C[C@H]4C)c12` [GP-6, reference compound] had a solubility (thermodynamic) below 1 µg/mL. Moreover, the IC50 in the data set with E. coli (BW25113) was 0.17 µM; in data set [2] it was at most 0.098 µM. Moreover, in the data set on E. coli (ATCC 25922), the MIC is 0.127 µg/mL (≈ 0.293 µM). Besides, half-maximal cytotoxicity in data set [3] (CC50 at 3 days) was put at 5.6 µM.
